Test results from the NIST ThermoML archive (doi:10.1021/je800357c).

Experiment: mn = molality of the nth substance listed, in mol/kg
Details: 101 kPa, Liquid

O=C(O)/C=C\C(=O)O [cis-1,4-butenedioic acid] + O
mass density [kg/m3]
Details	288.15 K	293.15 K	298.15 K	303.15 K	308.15 K	313.15 K	318.15 K	323.15 K	328.15 K	333.15 K
m1 = 0.09831	1003.24	1002.29	1001.04	999.59	997.91	996.07	994.03	991.81	989.41	986.88
m1 = 0.4902	1018.5	1017.26	1015.79	1014.1	1012.25	1010.18	1007.98	1005.58	1003.01	1000.36
m1 = 0.979	1035.99	1034.47	1032.74	1030.81	1028.74	1026.46	1024.06	1021.47	1018.75	1015.92
